Test results: ChEMBL document CHEMBL1138951 (J Med Chem, 2006)

Tests used:
Type in all cases: functional, organism-based
Plasmodium falciparum [1] = assay: Antimalarial activity against Plasmodium falciparum Dd2
Plasmodium falciparum [2] = assay: Antimalarial activity against Plasmodium falciparum HB3
Plasmodium falciparum [3] = assay: Antimalarial activity against Plasmodium falciparum W2

CCN(CC)CCCC(C)Nc1ccnc2cc(Cl)ccc12 (stereo not drawn) [CHLOROQUINE]
IC90 (Plasmodium falciparum [1]): 167 nM
IC90 (Plasmodium falciparum [2]): 45.7 nM
IC90 (Plasmodium falciparum [3]): 802 nM
